Values quoted from earlier work, collected in patent US20080185562A1, “Oxalate ester chemiluminescent light system” (Tianjin Dragon Chemiluminescent Tubes Co., Ltd., priority 2007, published 2008).

Key:
[1] = PEG value depends on molecular weight
rats = details: rat
[2] = at 122° C.

OCCCO [1,3-propylene glycol]
Flash point (° C./° F.) [1]: 79/174 | Toxicity (LD50 oral, mg/kg) (mus): 4,770 (mus) mg/kg

CCCCOCCOCCOCCCC [dibutyl diethylene glycol ether]
Toxicity (LD50 oral, mg/kg) (rats): 3,900 (rat) mg/kg | Flash point (° C./° F.) [1]: 117/243 | Vapor pressure (kPa) [2]: 1.33 at 122 °C kPa
